Experimental data reported in US10793563B2, “GCN2 inhibitors and uses thereof” (Merck Patent GmbH, priority 2018, dated 2020).
pIC50, pKi: −log10 of the molar value.

Each molecule was assayed against intracellular GCN2 (phosphorylation of the GCN2 substrate eIF2α) (Homo sapiens (Human), UniProt Q9P2K8) (assay: GCN2 Cellular Inhibition Assay (AlphaScreen SureFire P-eIF2α Ser51, borrelidin-treated U2OS cells)). Conditions: 10 μM borrelidin, 1 h, phosphorylated eIF2α Ser51, read-out: GCN2 Biomarker (IC50).
Type: cell-based
Method: Compounds can be screened for their ability to inhibit intracellular GCN2 using an AlphaScreen assay (Perkin Elmer) to detect phosphorylation of the GCN2 substrate eIF2α in borrelidin-treated cells. U2OS cells are plated at 5,000 cells per well in 384-well white polystyrene plates (Corning 3570) in McCoy's 5A media (GIBCO 26600-023) supplemented with 10% foetal bovine serum (SAFC 12103C), Penicillin/Streptomycin solution diluted 1:100 (Sigma P0781), and 2 mM L-glutamine (Sigma G7513), and allowed to adhere overnight at 37° C. in 5% CO2. Compounds are then added to the cell media from a final concentration of 40 μM in 4-fold serial dilutions. Borrelidin (FluoroChem M01440) is immediately added to the wells to a final concentration of 10 μM and the cells are incubated for 1 h at 37° C. in 5% CO2. After 1 h of treatment with borrelidin, the media is removed, and the cells are lysed with lysis buffer (TGR BioSceinces TGRLB) at ambient temperature.
An AlphaScreen SureFire P-eIF2α (Ser51) assay kit (Perkin Elmer TGREIF2S) was used to measure levels of eIF2α phosphorylated on Serine 51. Anti-phosphorylated eIF2α Ser51 antibody-linked acceptor beads (TGR BioScience 6760617) are added to the cell homogenate (diluted 1:250 into a mixture of activation (TGR BioScience TGRAB) and reaction buffer (TGR BioScience TGREIF2S) prepared immediately before use). The plate is then incubated for 2 h at ambient temperature in the dark. Anti-eIF2α antibody-linked donor beads (TGR BioScience 6760617) were then added (diluted 1:100 in dilution buffer (TGR BioScience TGRDB) prepared immediately before use). The plate is then incubated overnight at ambient temperature in the dark.
Plates are analyzed on an Alpha Technology-compatible PHERAstar FS plate reader (BMG Labtech Version 1.14) to quantify phosphorylated eIF2α Ser51 levels. The percentage inhibition of phosphorylated eIF2α is calculated by comparison to control wells stimulated with borrelidin alone.

intracellular GCN2 (phosphorylation of the GCN2 substrate eIF2α), sequence (Q9P2K8 whole entry): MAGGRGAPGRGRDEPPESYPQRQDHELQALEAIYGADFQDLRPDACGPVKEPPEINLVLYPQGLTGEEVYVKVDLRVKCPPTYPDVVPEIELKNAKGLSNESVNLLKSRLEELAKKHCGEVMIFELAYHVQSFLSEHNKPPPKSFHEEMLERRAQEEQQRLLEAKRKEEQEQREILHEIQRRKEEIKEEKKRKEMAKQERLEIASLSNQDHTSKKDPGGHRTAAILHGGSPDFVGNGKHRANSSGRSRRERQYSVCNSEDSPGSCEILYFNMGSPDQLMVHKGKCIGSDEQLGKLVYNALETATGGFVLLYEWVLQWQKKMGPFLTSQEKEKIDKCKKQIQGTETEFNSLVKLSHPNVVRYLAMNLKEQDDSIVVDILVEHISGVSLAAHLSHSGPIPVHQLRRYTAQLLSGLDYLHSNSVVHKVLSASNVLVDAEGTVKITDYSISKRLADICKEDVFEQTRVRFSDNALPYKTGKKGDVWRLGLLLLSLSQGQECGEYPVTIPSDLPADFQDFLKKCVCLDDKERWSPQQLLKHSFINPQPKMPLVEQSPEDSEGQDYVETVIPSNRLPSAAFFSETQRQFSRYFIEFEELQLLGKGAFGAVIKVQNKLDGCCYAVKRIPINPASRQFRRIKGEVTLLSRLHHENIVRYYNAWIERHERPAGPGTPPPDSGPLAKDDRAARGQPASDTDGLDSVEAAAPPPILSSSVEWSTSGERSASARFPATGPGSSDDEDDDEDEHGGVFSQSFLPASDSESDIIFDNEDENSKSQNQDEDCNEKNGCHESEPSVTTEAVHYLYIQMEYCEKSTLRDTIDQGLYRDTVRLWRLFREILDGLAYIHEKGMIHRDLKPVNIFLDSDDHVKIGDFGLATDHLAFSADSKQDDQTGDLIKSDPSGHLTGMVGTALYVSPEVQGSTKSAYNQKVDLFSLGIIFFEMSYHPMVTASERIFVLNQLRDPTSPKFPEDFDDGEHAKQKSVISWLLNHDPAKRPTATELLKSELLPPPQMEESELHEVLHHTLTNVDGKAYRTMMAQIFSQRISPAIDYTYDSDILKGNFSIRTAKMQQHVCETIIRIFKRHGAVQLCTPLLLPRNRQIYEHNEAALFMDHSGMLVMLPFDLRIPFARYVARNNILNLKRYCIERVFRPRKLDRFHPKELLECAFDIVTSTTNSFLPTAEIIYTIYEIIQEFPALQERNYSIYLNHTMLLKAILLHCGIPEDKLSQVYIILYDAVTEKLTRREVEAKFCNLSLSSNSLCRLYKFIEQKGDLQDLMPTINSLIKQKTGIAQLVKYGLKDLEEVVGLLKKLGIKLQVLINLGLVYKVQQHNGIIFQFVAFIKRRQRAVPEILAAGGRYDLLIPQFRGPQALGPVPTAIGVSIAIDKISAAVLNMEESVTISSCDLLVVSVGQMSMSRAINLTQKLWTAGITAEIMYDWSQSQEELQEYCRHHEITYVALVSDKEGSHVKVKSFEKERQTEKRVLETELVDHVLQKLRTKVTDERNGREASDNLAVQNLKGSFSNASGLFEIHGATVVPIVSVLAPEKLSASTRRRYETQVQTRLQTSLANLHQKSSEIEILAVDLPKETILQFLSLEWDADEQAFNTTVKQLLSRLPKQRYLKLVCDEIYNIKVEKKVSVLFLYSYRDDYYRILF

| pIC50 | Structure (SMILES) |
| --- | --- |
| > 6.30 | FC(F)(F)c1ccc2ncc(-c3nccc(N4CCN(C[C@@H]5CC56CC6)[C@H](c5cn[nH]c5)C4)n3)n2c1 [I-552, 3-(4-((R)-3-(1H-pyrazol-4-yl)-4-(((R)-spiro[2.2]pentan-1-yl)methyl)piperazin-1-yl)pyrimidin-2-yl)-6-(trifluoromethyl)imidazo[1,2-a]pyridine] |
| > 6.30 | FC(F)(F)c1ccc2ncc(-c3nccc(N4CCN(C[C@H]5CC56CC6)[C@@H](c5cn[nH]c5)C4)n3)n2c1 [I-553, 3-(4-((S)-3-(1H-pyrazol-4-yl)-4-(((S)-spiro[2.2]pentan-1-yl)methyl)piperazin-1-yl)pyrimidin-2-yl)-6-(trifluoromethyl)imidazo[1,2-a]pyridine] |
| > 6.30 | FC(F)(F)c1ccc2ncc(-c3nccc(N4CCOC(c5cn[nH]c5)C4)n3)n2c1 (stereo not shown) [I-3, 1H-pyrazol-4-yl-4-[2-[6-(trifluoromethyl)imidazo[1,2-a]pyridin-3-yl]pyrimidin-4-yl]morpholine] |
| > 6.30 | FC(F)(F)c1ccc2ncc(-c3nccc(N4CCOC(c5cn[nH]c5)C4)n3)n2c1 (stereo not shown) [I-2, 1H-Pyrazol-4-yl-4-[2-[6-(trifluoromethyl)imidazo[1,2-a]pyridin-3-yl]pyrimidin-4-yl]morpholine] |
| > 6.30 | FC(F)(F)c1ccc2ncc(-c3nccc(N4CCN(C[C@@H]5CC56CC6)[C@@H](c5cn[nH]c5)C4)n3)n2c1 [I-554, 3-(4-((S)-3-(1H-pyrazol-4-yl)-4-(((R)-spiro[2.2]pentan-1-yl)methyl)piperazin-1-yl)pyrimidin-2-yl)-6-(trifluoromethyl)imidazo[1,2-a]pyridine] |

The next lines start with the molecule.

| Structure (SMILES) | pIC50 |
| --- | --- |
| FC(F)(F)c1ccc2ncc(-c3ccnc(N4CCOC(c5cn[nH]c5)C4)n3)n2c1 (stereo not shown) [I-44, 2-(1H-Pyrazol-4-yl)-4-[4-[6-(trifluoromethyl)imidazo[1,2-a]pyridin-3-yl]pyrimidin-2-yl]morpholine] | > 6.30 |
| C[C@H]1C[C@@H](c2cn[nH]c2)CN(c2nccc(-c3cnc4ccc(C(F)(F)F)cn34)n2)C1 (mixture of isomers) [I-114, 2-[3-methyl-5-(1H-pyrazol-4-yl)piperidin-1-yl]-4-[6-(trifluoromethyl)imidazo[1,2-a]pyridin-3-yl]pyrimidine] | > 6.30 |
| FC(F)(F)c1ccc2ncc(-c3ccnc(N4CCOC(c5cn[nH]c5)C4)n3)n2c1 (stereo not shown) [I-10, 2-(1H-pyrazol-4-yl)-4-(4-(6-(trifluoromethyl)imidazo[1,2-a]pyridin-3-yl)pyrimidin-2-yl)morpholine] | > 6.30 |
| O=S1(=O)CC2(CC(N3CCN(c4ccnc(-c5cnc6ccc(C(F)(F)F)cn56)n4)C[C@@H]3c3cn[nH]c3)C2)C1 [I-556, (S)-6-(2-(1H-pyrazol-4-yl)-4-(2-(6-(trifluoromethyl)imidazo[1,2-a]pyridin-3-yl)pyrimidin-4-yl)piperazin-1-yl)-2-thiaspiro[3.3]heptane 2,2-dioxide] | 5.30 to 6.30 |
| C[C@@H]1CN(c2nccc(-c3cnc4ccc(C(F)(F)F)cn34)n2)C[C@H](c2cn[nH]c2)O1 [I-118] | > 6.30 |

The molecules below were run against GCN2 kinase (Homo sapiens (Human), UniProt Q9P2K8) (assay: GCN2 Enzyme Inhibition Assay (Transcreener ADP2 fluorescence polarization)). Conditions: 280 μM ATP, 200 μM (RS)7 peptide, 4 nM GCN2, 25° C.
Type: biochemical
Summary of the method: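 At 25 °C, GCN2 kinase (typical final concentration 4 nM) and (RS)7 peptide in Tris-HCl pH 7.5 buffer with MgCl2, NaCl and DTT were preincubated with compound for 10 min, then ATP was added for a 1 h reaction. ADP was read by FP with antibody/Alexa633 tracer. Non-linear tight-binding analysis gave IC50 and apparent Ki.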

GCN2 kinase, sequence (Q9P2K8 whole entry): as above

| pIC50 | Structure (SMILES) |
| --- | --- |
| 6.00 to 7.00 | NC(=O)[C@H]1CN(c2ccnc(-c3cnc4ccc(C(F)(F)F)cn34)n2)CCO1 [I-151, (R)-4-(2-(6-(trifluoromethyl)imidazo[1,2-a]pyridin-3-yl)pyrimidin-4-yl)morpholine-2-carboxamide] |
| 6.00 to 7.00 | NC(=O)[C@H]1CN(c2ccnc(-c3cnc4cc(F)c(Cl)cn34)n2)CCN1C1CC1 [I-425, (R)-4-(2-(6-chloro-7-fluoroimidazo[1,2-a]pyridin-3-yl)pyrimidin-4-yl)-1-cyclopropylpiperazine-2-carboxamide] |
| 7.00 to 8.00 | C[C@H]1CN(c2ccnc(-c3cnc4ccc(C(F)(F)F)cn34)n2)C[C@H](C(N)=O)O1 [I-129, (2R,6 S)-6-methyl-4-(2-(6-(trifluoromethyl)imidazo[1,2-a]pyridin-3-yl)pyrimidin-4-yl)morpholine-2-carboxamide] |
| 7.00 to 8.00 | O=C([C@H]1C[C@H]1F)N1CCN(c2ccnc(-c3cnc4ccc(C(F)(F)F)cn34)n2)CC1c1cn[nH]c1 (stereo in doubt) [I-489, (2-(1H-pyrazol-4-yl)-4-(2-(6-(trifluoromethyl)imidazo[1,2-a]pyridin-3-yl)pyrimidin-4-yl)piperazin-1-yl)((1R,2R)-2-fluorocyclopropyl)methanone] |
| 6.00 to 7.00 | NC(=O)C1CN(c2ccnc(-c3cnc4ccc(C(F)(F)F)cn34)n2)C1 [I-228, 1-(2-(6-(trifluoromethyl)imidazo[1,2-a]pyridin-3-yl)pyrimidin-4-yl)azetidine-3-carboxamide] |

The next lines start with the molecule.

| Structure (SMILES) | pIC50 |
| --- | --- |
| Cc1nonc1C(=O)N1CCN(c2ccnc(-c3cnc4ccc(C(F)(F)F)cn34)n2)CC1c1cn[nH]c1 (stereo not shown) [I-518, (2-(1H-pyrazol-4-yl)-4-(2-(6-(trifluoromethyl)imidazo[1,2-a]pyridin-3-yl)pyrimidin-4-yl)piperazin-1-yl)(4-methyl-1,2,5-oxadiazol-3-yl)methanone] | 7.00 to 8.00 |
| O=C(N1CCN(c2ccnc(-c3cnc4ccc(C(F)(F)F)cn34)n2)CC1c1cn[nH]c1)C1(C(F)F)CC1 (stereo not shown) [I-488, (2-(1H-pyrazol-4-yl)-4-(2-(6-(trifluoromethyl)imidazo[1,2-a]pyridin-3-yl)pyrimidin-4-yl)piperazin-1-yl)(1-(difluoromethyl)cyclopropyl)methanone] | 7.00 to 8.00 |
| NC(=O)C1CCCN(c2nc(-c3cnc4ccc(C(F)(F)F)cn34)ncc2F)C1 (stereo in doubt) [I-282, (S)-1-(5-fluoro-2-(6-(trifluoromethyl)imidazo[1,2-a]pyridin-3-yl)pyrimidin-4-yl)piperidine-3-carboxamide] | 6.00 to 7.00 |
| Cc1[nH]ncc1[C@H]1[C@H](C)N(c2ccnc(-c3cnc4ccc(C(F)(F)F)cn34)n2)CCN1C1COC1 [I-367] | 6.00 to 7.00 |
| CC1(C)CN(c2ccnc(-c3cnc4ccc(C(F)(F)F)cn34)n2)CCN1 [I-334, 3-(4-(3,3-dimethylpiperazin-1-yl)pyrimidin-2-yl)-6-(trifluoromethyl)imidazo[1,2-a]pyridine] | 6.00 to 7.00 |
| C[C@H]1[C@@H](c2cn[nH]c2)NCCN1c1ccnc(-c2cnc3ccc(C(F)(F)F)cn23)n1 [I-534, 3-(4-((2 S,3R)-2-methyl-3-(1H-pyrazol-4-yl)piperazin-1-yl)pyrimidin-2-yl)-6-(trifluoromethyl)imidazo[1,2-a]pyridine] | 6.00 to 7.00 |
| C[C@H]1[C@@H](CNS(C)(=O)=O)NCCN1c1ccnc(-c2cnc3ccc(C(F)(F)F)cn23)n1 [I-436, N-(((2R,3 S)-3-methyl-4-(2-(6-(trifluoromethyl)imidazo[1,2-a]pyridin-3-yl)pyrimidin-4-yl)piperazin-2-yl)methyl)methanesulfonamide] | 7.00 to 8.00 |
| O=C(CO)N[C@H]1C[C@H](O)CN(c2ccnc(-c3cnc4ccc(C(F)(F)F)cn34)n2)C1 [I-253, 2-hydroxy-N-((3S,5S)-5-hydroxy-1-(2-(6-(trifluoromethyl)imidazo[1,2-a]pyridin-3-yl)pyrimidin-4-yl)piperidin-3-yl)acetamide] | 6.00 to 7.00 |
| COc1cc(C(=O)N2CCN(c3ccnc(-c4cnc5ccc(C(F)(F)F)cn45)n3)CC2c2cn[nH]c2)ccn1 (stereo not shown) [I-452, (2-(1H-pyrazol-4-yl)-4-(2-(6-(trifluoromethyl)imidazo[1,2-a]pyridin-3-yl)pyrimidin-4-yl)piperazin-1-yl)(2-methoxypyridin-4-yl)methanone] | 6.00 to 7.00 |

Same assay, conditions: Ki(app); 280 μM ATP, 200 μM (RS)7 peptide, 4 nM GCN2, 25° C.

| pKi | Structure (SMILES) |
| --- | --- |
| > 8.00 | O=C1NCCC2CN(c3ccnc(-c4cnc5ccc(Cl)cn45)n3)CCN12 (stereo not shown) [I-96, 2-(2-{6-chloroimidazo[1,2-a]pyridin-3-yl}pyrimidin-4-yl)-octahydro-1H-pyrazino[1,2-c]pyrimidin-6-one] |
| 7.00 to 8.00 | O=C1OCC2CN(c3ccnc(-c4cnc5ccc(Cl)cn45)n3)CCN12 (stereo not shown) [I-99, 7-(2-{6-chloroimidazo[1,2-a]pyridin-3-yl}pyrimidin-4-yl)-hexahydro-1H-[1,3]oxazolo[3,4-a]pyrazin-3-one] |
| 7.00 to 8.00 | O=C1NCC2CN(c3ccnc(-c4cnc5ccc(Cl)cn45)n3)CCN12 (stereo not shown) [I-97, 7-(2-{6-chloroimidazo[1,2-a]pyridin-3-yl}pyrimidin-4-yl)-octahydroimidazo[1,5-a]pyrazin-3-one] |
| > 8.00 | CC1CC(C(N)=O)C(C)N(c2ccnc(-c3cnc4cc(F)c(Cl)cn34)n2)C1 (stereo not shown) [I-52, 1-[2-(6-Chloro-7-fluoro-imidazo[1,2-a]pyridin-3-yl)pyrimidin-4-yl]-2,5-dimethyl-piperidine-3-carboxamide] |
